According to patent US20020198158A1, “Use of a cyclic ether for the preparation of medicaments affecting glucose tolerance” (priority 2000, published 2002):
“Also recorded” adds a separate entry of the source.

Legend:
NMRI mice [1] = test: Intravenous glucose tolerance test; type: in vivo; details: for AUCinsulin (area under the insulin curve during the 50 min study period): anesthetized mice
Description: (§1) Non-fasted NMRI mice (Bomholdtgaard Breeding and Research Center, Ry, Denmark), weighing 20-25 g are used throughout the study. The animals are fed a standard pellet diet and tap water ad libitum.
The mice are anesthetized with an intraperitoneal injection of midazolam (Dormicum^R, Hoffman-La-Roche, Basel, Switzerland, 0.4 mg/mouse) and a combination of fluanison (0.9 mg/mouse) and fentanyl (0.02 mg/mouse; Hypnorm^R, Janssen, Beerse, Belgium). Thereafter, a blood sample is taken from the retrobulbar, intraorbital, capillary plexus in heparinized tubes, whereafter D-glucose (British Drug Houses, Poole, UK; 1 g/kg) is injected rapidly intravenously either alone or together with 1,5AnFru (Danisco Ltd, Copenhagen, Denmark; 0.2 or 1 g/kg); in one series of experiments, 1,5AnFru is given alone (1 g/kg). The volume load is 10 μl/g body weight. New blood samples are taken after 1, 5, 10, 20, 30 and 50 minutes. In another set of experiments, 1,5AnFru is given by gastric gavage (0.2 g/kg) five minutes before the zero blood sample taken immediately before the intravenous injection of glucose as above. Blood samples are taken as above. Following immediate centrifugation at 4° C., plasma is separated and stored at −20° C. or until analysis.
(§2) Plasma insulin is determined radioimmunochemically with the use of a guinea pig anti-rat insulin antibody, ^125I-labelled porcine insulin as tracer and rat insulin as standard (Linco Research, St Charles, Mo., USA). Free and bound radioactivity is separated by use of an anti-IgG (goat anti-guinea pig) antibody (Linco). The sensitivity of the assay is 12 pmol/l and the coefficiency of variation is less than 3% at both low and high levels. Plasma glucose is determined with the glucose oxidase method. Plasma GLP-1 is measured by a radioimmunoassay after extraction of plasma samples with ethanol. 400 μl 0.05 mol/l sodium phosphate buffer, pH 7.5, containing 6% albumin and 0.1 mol/l NaCl is added to 100 μl mouse plasma on ice and mixed well. The mixture is then extracted with 70% ethanol (vol/vol, final dilution), and after vacuum centrifugation the residue is reconstituted in assay buffer and assayed as previously described (Ørskov et al., 1994). […] The sensitivity using this procedure is 5 pmol/l, and the intra-assay coefficient of variation is 10%.
(§3) Means±SEM are shown. Area under the curve for plasma insulin levels (AUCisulin) is calculated by the trapezoid rule. Statistical analyses are performed with the SPSS for Windows system. Statistical comparisons between groups are performed with Students t-test.

isolated mouse islets = test: Insulin secretion in vitro from isolated islets; type: cell-based; details: 60 min incubation
Description: Pancreatic islets are isolated from four mice with the collagenase isolation technique. In brief, the pancreas is filled retrogradely through the pancreatic duct with 3 ml of Hank's Balanced Salt Solution (Sigma), supplemented with 0.3 mg/ml of Collagenase P (activity 1.86 U/mg; Boehringer Mannheim Gmbh, Mannheim, Germany). The pancreas is subsequently removed and incubated in the same solution for 20 min at 37° C. After rinsing, the islets are handpicked under a stereomicroscope and incubated overnight in RPMI 1640 medium supplemented with 10% fetal calf serum, 2.05 mmol/l L-glutamine, 2.5 μg/ml amphotericin B (GIBCO BRL, Paisley, Scotland), 100 lU/ml penicillin and 100 μg/ml streptomycin (Biol Ind, Beit Haemek, Israel) at 37° C. in humidified air equilibrated with 5% CO2. […]
Plasma insulin is determined radioimmunochemically with the use of a guinea pig anti-rat insulin antibody, ^125I-labelled porcine insulin as tracer and rat insulin as standard (Linco Research, St Charles, Mo., USA). Free and bound radioactivity is separated by use of an anti-IgG (goat anti-guinea pig) antibody (Linco). […] Plasma glucose is determined with the glucose oxidase method. Plasma GLP-1 is measured by a radioimmunoassay after extraction of plasma samples with ethanol. […]

NMRI mice [2] = test: Gastric glucose tolerance test; type: in vivo; details: gastric gavage glucose 150 mg/mouse with 1,5AnFru 150 mg/mouse
Description: as §1
(§4) The mice are fasted overnight and anesthetized as above. After induction of anesthesia, D-glucose (150 mg/mouse in 0.5 ml) is administered alone or together with 1,5AnFru (150 mg/mouse) through a gavage tube (outer diameter 1.2 mm) placed in the stomach. Blood samples are taken after 15, 30, 45, 60, 90 and 120 minutes and treated as above.
as §2, §3

GLP-1 = test: Plasma GLP-1 after gastric gavage; type: in vivo, mice; details: P<0.05
Description: as §1, §4
Plasma insulin is determined radioimmunochemically with the use of a guinea pig anti-rat insulin antibody, ^125I-labelled porcine insulin as tracer and rat insulin as standard (Linco Research, St Charles, Mo., USA). Free and bound radioactivity is separated by use of an anti-IgG (goat anti-guinea pig) antibody (Linco). The sensitivity of the assay is 12 pmol/l and the coefficiency of variation is less than 3% at both low and high levels. Plasma glucose is determined with the glucose oxidase method. Plasma GLP-1 is measured by a radioimmunoassay after extraction of plasma samples with ethanol. 400 μl 0.05 mol/l sodium phosphate buffer, pH 7.5, containing 6% albumin and 0.1 mol/l NaCl is added to 100 μl mouse plasma on ice and mixed well. […]

SMILES: O=C1CO[C@H](CO)[C@@H](O)[C@@H]1O [1,5AnFru, 1,5-anhydro-D-fructose]
- glucose-stimulated insulin secretion (insulin response to iv glucose) (NMRI mice [1]; 1,5AnFru 1 g/kg iv together with glucose 1 g/kg iv): inhibits
- basal plasma levels of insulin or glucose (NMRI mice [1]; 1,5AnFru given alone iv, 1 g/kg): not affected
- AUCinsulin (area under the insulin curve during the 50 min study period) (NMRI mice [1]; iv glucose 1 g/kg together with 1,5AnFru 0.2 g/kg iv): 14.6±1.9 nmol/l×50 min
- AUCinsulin (area under the insulin curve during the 50 min study period) (NMRI mice [1]; iv glucose 1 g/kg together with 1,5AnFru 1 g/kg iv, P=0.021 vs glucose alone): 8.6±1.9 nmol/l×50 min
- glucose elimination after intravenous glucose administration (NMRI mice [1]; iv glucose 1 g/kg with 1,5AnFru iv, 50 min study period): not affected; also recorded: without affecting
- glucose-stimulated insulin secretion (isolated mouse islets; 16.7 mmol/l 1,5AnFru together with 11.1 mmol/l glucose): inhibition of insulin secretion is observed; also recorded: inhibits
- glucose-stimulated insulin secretion (isolated mouse islets; 1,5AnFru at 11.1 mmol/l or below): does not affect
- AUCinsulin during 60 min (NMRI mice [2]; P=0.018 vs control): 32.9 ± 2.6 nmol/L
- AUCinsulin during the first 60 min after administration (NMRI mice [2]; P=0.018 vs controls): 32.9±2.6 nmol/l in 60 min
- 60 min plasma glucose value (NMRI mice [2]; P=0.021 vs controls): 15.5 ± 1.6 mmol/L
- plasma GLP-1, 30 min value (GLP-1; 30 min after gastric gavage of glucose 150 mg/mouse with 1,5AnFru 150 mg/mouse): 78.2 ± 8.6 pmol/L
- plasma GLP-1, 60 min value (GLP-1; 60 min after gastric gavage of glucose 150 mg/mouse with 1,5AnFru 150 mg/mouse): 28.8 ± 3.8 pmol/L
